Read-outs that look alike come from different tables or passages of the source.
How the values were obtained:
COX‐1 [1] = target: T1, COX‐1 (Mus musculus, UniProt P22437); conditions: J774 murine macrophage assay, cited from earlier work
T1 construct: endogenous in cells; host or cells: J774 murine monocyte/macrophage cell line
T1 sequence (P22437 27-602): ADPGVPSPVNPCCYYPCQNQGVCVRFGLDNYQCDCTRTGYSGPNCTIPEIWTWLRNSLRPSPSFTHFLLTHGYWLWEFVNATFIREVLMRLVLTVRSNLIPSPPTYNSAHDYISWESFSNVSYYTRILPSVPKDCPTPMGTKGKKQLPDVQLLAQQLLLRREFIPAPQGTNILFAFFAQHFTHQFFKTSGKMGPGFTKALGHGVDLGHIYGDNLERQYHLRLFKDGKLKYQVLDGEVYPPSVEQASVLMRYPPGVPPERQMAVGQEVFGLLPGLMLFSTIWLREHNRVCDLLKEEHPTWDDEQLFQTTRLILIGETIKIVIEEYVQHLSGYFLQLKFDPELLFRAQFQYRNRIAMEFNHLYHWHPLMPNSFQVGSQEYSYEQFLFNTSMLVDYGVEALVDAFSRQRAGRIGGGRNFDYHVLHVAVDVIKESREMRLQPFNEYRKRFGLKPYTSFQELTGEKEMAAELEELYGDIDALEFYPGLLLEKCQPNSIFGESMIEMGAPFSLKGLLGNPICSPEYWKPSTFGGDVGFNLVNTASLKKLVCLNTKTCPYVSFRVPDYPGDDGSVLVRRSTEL

COX‐1 [2] = target: T1, COX‐1; assay: COX‐1 inhibition of PGE2 production, arachidonic acid-stimulated J774 murine macrophage assay; assay type: cell-based; conditions: J774 cells, 15 μM arachidonic acid, PGE2 by EIA, mean of three experiments
Protocol: All tested compounds didn’t inhibit the production of PGE2 via COX‐1 in AA‐stimulated J774 macrophages.
(§1) The cell line was grown in DMEM supplemented with 2 mM glutamine, 25 mM HEPES, 100 units mL^–1 penicillin, 100 μg mL^–1 streptomycin, 10% fetal bovine serum (FBS), and 1.2% sodium pyruvate. Cells were plated in 24‐well culture plates at a density of 2.5 × 10^5 cells mL^–1 and allowed to adhere at 37 °C in 5% CO2 for 2 h. Immediately before the experiments, the culture medium was replaced with fresh medium, and cells were stimulated as previously described.^[ [64] ^] The evaluation of COX‐1 inhibitory activity was achieved by pretreating cells with test compounds (10 μM) for 15 min and then incubating them at 37 °C for 30 min with 15 μM arachidonic acid to activate the constitutive COX. At the end of the incubation, the supernatants were collected to measure PGE2 levels by an enzyme immuno‐assay (EIA). To evaluate COX‐2 activity, cells were stimulated for 24 h with Escherichia coli lipopolysaccharide (LPS, 10 μg mL^–1) to induce COX‐2, in the absence or presence of test compounds (0.001–10 μM). The supernatants were collected for the measurement of PGE2 by means of EIA. Celecoxib was utilized as a reference compound for the selectivity index. Triplicate wells were used for the various treatment conditions in the cell culture assay throughout the experiments. Results are expressed as the mean of three experiments of the % inhibition of PGE2 production by test compounds with respect to control samples. Data fit was obtained using the sigmoidal dose–response equation (variable slope) (GraphPad software). The IC50 values were calculated by the GraphPad Instat program (GraphPad software).

COX‐2 [3] = target: T2, COX‐2 (Mus musculus, UniProt Q05769); assay: COX‐2 inhibition of PGE2 production, LPS-stimulated J774 murine macrophage assay; assay type: cell-based; conditions: for IC50: J774 cells, LPS 10 μg/mL 24 h, PGE2 by EIA, mean of three experiments; for COX‐1/COX‐2 [SI]: selectivity index IC50(COX‐1)/IC50(COX‐2)
T2 construct: endogenous in cells; host or cells: J774 murine monocyte/macrophage cell line, LPS-stimulated
T2 sequence (Q05769 18-604): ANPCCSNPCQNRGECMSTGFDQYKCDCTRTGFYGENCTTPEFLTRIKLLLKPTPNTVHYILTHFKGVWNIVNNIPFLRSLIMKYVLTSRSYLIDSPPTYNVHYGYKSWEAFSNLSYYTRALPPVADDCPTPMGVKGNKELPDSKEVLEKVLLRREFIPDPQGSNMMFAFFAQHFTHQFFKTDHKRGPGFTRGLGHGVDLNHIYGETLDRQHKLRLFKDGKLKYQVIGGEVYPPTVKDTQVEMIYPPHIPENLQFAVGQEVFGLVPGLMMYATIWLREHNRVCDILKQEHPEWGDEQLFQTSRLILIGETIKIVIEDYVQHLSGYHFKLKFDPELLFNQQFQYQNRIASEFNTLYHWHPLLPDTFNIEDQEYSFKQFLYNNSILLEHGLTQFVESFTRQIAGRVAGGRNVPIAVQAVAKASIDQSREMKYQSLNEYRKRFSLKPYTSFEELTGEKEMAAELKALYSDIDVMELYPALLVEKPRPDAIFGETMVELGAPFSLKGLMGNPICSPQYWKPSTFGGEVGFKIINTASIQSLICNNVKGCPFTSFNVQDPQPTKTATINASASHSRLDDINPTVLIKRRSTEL
Protocol: This required that hydrolysis was mandatory to obtain the possible release of bioactive compounds from the macromolecular ester prodrugs. […] All these considerations led us to consider the importance of the possible hydrolysis process, which could lead to release the bioactive compounds from the macromolecular ester prodrug 13a.
as §1

COX‐2 [4] = target: T2, COX‐2; conditions: ref [24], cited from earlier work

| IC50 (COX‐1 [2]) [nM] | IC50 (COX‐2 [3]) [nM] | COX‐1/COX‐2 [SI] (COX‐2 [3]) | SMILES | also measured |
| --- | --- | --- | --- | --- |
| – | – | – | Cc1c(CCOCCO)cc(-c2ccc(S(C)(=O)=O)cc2)n1-c1ccc(F)cc1 [Compound 7b] | IC50 (COX‐1 [1]; ref [27]): > 10000 nM |
| > 10000 | > 10000 | – | COc1cc(/C=C/C(=O)O)ccc1OCc1cn(CCOCCOCCOCCOCCOCCOCCc2cc(-c3ccc(S(C)(=O)=O)cc3)n(-c3ccc(F)cc3)c2C)nn1 [Compound 12b, (E)‐3‐(4‐((1‐(20‐(1‐(4‐Fluorophenyl)‐2‐methyl‐5‐(4‐(methylsulfonyl)phenyl)‐1H‐pyrrol‐3‐yl)‐3,6,9,12,15,18‐hexaoxaicosyl)‐1H‐1,2,3‐triazol‐4‐yl)methoxy)‐3‐methoxyphenyl)acrylic acid] | inhibition of PGE2 production via COX‐2 (in words) (COX‐2 [3]; LPS‐stimulated macrophages): completely devoid of COX‐2 inhibitory activity |
| > 10000 | 50 | >200 | COc1cc(/C=C/C(=O)O)ccc1OCc1cn(CCOCCOCCOCCOCCOCCOCCC(=O)OCCOCCc2cc(-c3ccc(S(C)(=O)=O)cc3)n(-c3ccc(F)cc3)c2C)nn1 [Compound 13b, (E)‐3‐(4‐((1‐(27‐(1‐(4‐Fluorophenyl)‐2‐methyl‐5‐(4‐(methylsulfonyl)phenyl)‐1H‐pyrrol‐3‐yl)‐21‐oxo‐3,6,9,12,15,18,22,25‐octaoxaheptacosyl)‐1H‐1,2,3‐triazol‐4‐yl)methoxy)‐3‐methoxyphenyl)acrylic acid] | – |
| > 10000 | 15 | >666.7 | Cc1c(CCOCCOC(=O)CCOCCOCCOCCOCCOCCOCCN=[N+]=[N-])cc(-c2ccc(S(C)(=O)=O)cc2)n1-c1ccc(F)cc1 [Compound 14, 2‐(2‐(1‐(4‐Fluorophenyl)‐2‐methyl‐5‐(4‐(methylsulfonyl)phenyl)‐1H‐pyrrol‐3‐yl)ethoxy)ethyl 1‐azido‐3,6,9,12,15,18‐hexaoxahenicosan‐21‐oate] | – |
| > 10000 | 500 | >20 | Cc1c(CCOCCOCCOCCOCCOCCOCCN=[N+]=[N-])cc(-c2ccc(S(C)(=O)=O)cc2)n1-c1ccc(F)cc1 [Compound 19, 3‐(20‐Azido‐3,6,9,12,15,18‐hexaoxaicosyl)‐1‐(4‐fluorophenyl)‐2‐methyl‐5‐(4‐(methylsulfonyl)phenyl)‐1H‐pyrrole] | – |
| – | – | – | Cc1c(CCO)cc(-c2ccc(S(C)(=O)=O)cc2)n1-c1ccc(F)cc1 [Compound 21] | IC50 (COX‐1 [1]; ref [24]): > 10000 nM; IC50 (COX‐2 [4]; J774 murine macrophage assay): 70 nM; COX‐1/COX‐2 [SI] (COX‐2 [4]; selectivity index IC50(COX‐1)/IC50(COX‐2)): >142.8 |

From publication PMC12711161, “Design, Synthesis, and Biological Characterization of Macromolecular Ester Prodrugs of a Selective Cyclooxygenase‐2 Inhibitor” (Chemmedchem, 2025)
